PMC10254852, “Design, Synthesis and Anticancer Evaluation of Nitroimidazole Radiosensitisers” (Molecules, 2023)

System: HCT116/54C cells
Assay: In vitro cytotoxicity, 4 h exposure oxic/anoxic, 5-day regrowth, sulforhodamine B
Assay type: cell-based, human
Conditions: HCT116/54C, IC50(oxic)/IC50(anoxic)
From the text: (§1) This allowed derivation of hypoxia cytotoxicity ratios (HCR) as IC50(oxic)/IC50(anoxic) in an HCT116 subclone HCT116/54C and two HNSCC cell lines, FaDu and UT-SCC-74B (Table 2).
(§2) HCT116/54C is an HCT116 subline that originated from a mixed culture with UT-SCC-54C cells, which was supplied alongside UT-SCC-74B by Prof. Bradly Wouters (University Health Network, Toronto, ON, Canada). HCT116/54C and UT-SCC-74B cells were passaged in minimum essential media (MEM, ThermoFisher Scientific, Waltham, MA, USA) with 10% foetal calf serum (FCS, Moregate Biotech, Hamilton, New Zealand), 4.5 mg/mL D-glucose (Sigma-Aldrich, St. Louis, MO, USA) and 20 mM HEPES (Sigma-Aldrich). FaDu cells were sourced from American Type Culture Collection and cultured in αMEM (ThermoFisher Scientific) with 10% FCS. All cell lines were confirmed mycoplasma-free by PlasmoTest (InvivoGen, San Diego, CA, USA) and were derived from STR-authenticated cryopreserved stocks. Log-phase cells were seeded into 96-well plates at 800 cells/well for HCT116/54C and 1500 cells/well for FaDu. […] After drug washout, cells were grown and stained as for the oxic IC50 assays. The hypoxic cytotoxicity ratio HCR was determined as HCR = IC50(oxic)/IC50(anoxic).

Question: Which HCR does the source give for `Cc1ncc([N+](=O)[O-])n1CCS(=O)(=O)NCCO` [Compound 41] here?
Answer: Its HCR is >1.1.

Question: How did the HCR turn out when `Cc1ncc([N+](=O)[O-])n1CCS(=O)(=O)NCCN1CCOCC1` [Compound 42] was run?
Answer: Its HCR is 1.8.

Question: For `Cc1ncc([N+](=O)[O-])n1CCS(=O)(=O)N1CCN(C)CC1` [Compound 43], which HCR is on record?
Answer: The HCR was 1.2.

Question: With `Cc1ncc([N+](=O)[O-])n1CCS(=O)(=O)NCCCN1CCOCC1` [Compound 44] as the compound, how does the HCR read?
Answer: The HCR was >2.0.

Question: For `Cc1ncc([N+](=O)[O-])n1CCS(=O)(=O)NCCN1CCCCC1` [Compound 45], which HCR is on record?
Answer: Its HCR is 5.0.

Same assay, conditions: Homo sapiens; HCT116/54C, anoxic, 4 h exposure, mean ± SEM, n = 3–4; read-out: IC50 Anoxic

Question: How did the IC50 turn out when `Cc1ncc([N+](=O)[O-])n1CCS(=O)(=O)NCCO` [Compound 41] was run?
Answer: The IC50 was 15.5 ± 2.6 mM.

Question: For `Cc1ncc([N+](=O)[O-])n1CCS(=O)(=O)NCCN1CCOCC1` [Compound 42], which IC50 is on record?
Answer: Its IC50 is 4.3 ± 0.2 mM.

Question: Which IC50 does the source give for `Cc1ncc([N+](=O)[O-])n1CCS(=O)(=O)N1CCN(C)CC1` [Compound 43] here?
Answer: Its IC50 is 9.9 ± 0.3 mM.

Question: `Cc1ncc([N+](=O)[O-])n1CCS(=O)(=O)NCCCN1CCOCC1` [Compound 44] was tested. Which IC50 did it give?
Answer: Its IC50 is 10.3 ± 1.5 mM.

Question: How did the IC50 turn out when `Cc1ncc([N+](=O)[O-])n1CCS(=O)(=O)NCCN1CCCCC1` [Compound 45] was run?
Answer: The IC50 was 2.4 ± 0.4 mM.

Same assay, conditions: Homo sapiens; HCT116/54C, oxic, 4 h exposure, mean ± SEM, n = 3–4; read-out: IC50 Oxic

Question: For `Cc1ncc([N+](=O)[O-])n1CCS(=O)(=O)NCCO` [Compound 41], which IC50 is on record?
Answer: Its IC50 is > 18 mM.

Question: With `Cc1ncc([N+](=O)[O-])n1CCS(=O)(=O)NCCN1CCOCC1` [Compound 42] as the compound, how does the IC50 read?
Answer: The IC50 was 7.6 ± 0.4 mM.

Question: With `Cc1ncc([N+](=O)[O-])n1CCS(=O)(=O)N1CCN(C)CC1` [Compound 43] as the compound, how does the IC50 read?
Answer: Its IC50 is 11.7 ± 1.3 mM.

Question: Which IC50 does the source give for `Cc1ncc([N+](=O)[O-])n1CCS(=O)(=O)NCCCN1CCOCC1` [Compound 44] here?
Answer: Its IC50 is > 21 mM.

Question: With `Cc1ncc([N+](=O)[O-])n1CCS(=O)(=O)NCCN1CCCCC1` [Compound 45] as the compound, how does the IC50 read?
Answer: The IC50 was 11.8 ± 1.5 mM.

System: UT-SCC-74B cells
Assay: as above
Assay type: cell-based, human
Conditions: Homo sapiens, anoxic, 4 h exposure, mean ± SEM, n = 3–4, read-out: IC50 Anoxic
From the text: as §1, §2

Question: Which IC50 does the source give for `Cc1ncc([N+](=O)[O-])n1CCS(=O)(=O)NCCO` [Compound 41] here?
Answer: The IC50 was 13.7 ± 3.7 mM.

Question: `Cc1ncc([N+](=O)[O-])n1CCS(=O)(=O)NCCN1CCOCC1` [Compound 42] was tested. Which IC50 did it give?
Answer: Its IC50 is 6.6 ± 0.6 mM.

Question: How did the IC50 turn out when `Cc1ncc([N+](=O)[O-])n1CCS(=O)(=O)NCCCN1CCOCC1` [Compound 44] was run?
Answer: The IC50 was 7.1 ± 1.5 mM.

Same assay, conditions: Homo sapiens, oxic, 4 h exposure, mean ± SEM, n = 3–4, read-out: IC50 Oxic

Question: `Cc1ncc([N+](=O)[O-])n1CCS(=O)(=O)NCCO` [Compound 41] was tested. Which IC50 did it give?
Answer: The IC50 was > 21 mM.

Question: Which IC50 does the source give for `Cc1ncc([N+](=O)[O-])n1CCS(=O)(=O)NCCN1CCOCC1` [Compound 42] here?
Answer: Its IC50 is 8.9 ± 1.6 mM.

Question: How did the IC50 turn out when `Cc1ncc([N+](=O)[O-])n1CCS(=O)(=O)NCCCN1CCOCC1` [Compound 44] was run?
Answer: Its IC50 is 13.2 ± 2 mM.

Same assay, conditions: IC50(oxic)/IC50(anoxic)

Question: Which HCR does the source give for `Cc1ncc([N+](=O)[O-])n1CCS(=O)(=O)NCCO` [Compound 41] here?
Answer: The HCR was >1.5.

Question: How did the HCR turn out when `Cc1ncc([N+](=O)[O-])n1CCS(=O)(=O)NCCN1CCOCC1` [Compound 42] was run?
Answer: The HCR was 1.4.

Question: For `Cc1ncc([N+](=O)[O-])n1CCS(=O)(=O)NCCCN1CCOCC1` [Compound 44], which HCR is on record?
Answer: Its HCR is 1.9.

System: FaDu cells
Assay: as above
Assay type: cell-based
Conditions: Homo sapiens, anoxic, 4 h exposure, mean ± SEM, n = 3–4, read-out: IC50 Anoxic
From the text: as §1, §2

Question: Which IC50 does the source give for `Cc1ncc([N+](=O)[O-])n1CCS(=O)(=O)NCCO` [Compound 41] here?
Answer: The IC50 was > 22 mM.

Question: `Cc1ncc([N+](=O)[O-])n1CCS(=O)(=O)NCCN1CCOCC1` [Compound 42] was tested. Which IC50 did it give?
Answer: The IC50 was 7.8 ± 0.2 mM.

Question: For `Cc1ncc([N+](=O)[O-])n1CCS(=O)(=O)N1CCN(C)CC1` [Compound 43], which IC50 is on record?
Answer: The IC50 was 8.6 ± 0.6 mM.

Question: How did the IC50 turn out when `Cc1ncc([N+](=O)[O-])n1CCS(=O)(=O)NCCCN1CCOCC1` [Compound 44] was run?
Answer: The IC50 was 7.8 ± 0.7 mM.

Question: `Cc1ncc([N+](=O)[O-])n1CCS(=O)(=O)NCCN1CCCCC1` [Compound 45] was tested. Which IC50 did it give?
Answer: Its IC50 is 1.7 ± 0.4 mM.

Same assay, conditions: Homo sapiens, oxic, 4 h exposure, mean ± SEM, n = 3–4, read-out: IC50 Oxic

Question: With `Cc1ncc([N+](=O)[O-])n1CCS(=O)(=O)NCCO` [Compound 41] as the compound, how does the IC50 read?
Answer: Its IC50 is > 25 mM.

Question: Which IC50 does the source give for `Cc1ncc([N+](=O)[O-])n1CCS(=O)(=O)NCCN1CCOCC1` [Compound 42] here?
Answer: The IC50 was 9.8 ± 1.2 mM.

Question: `Cc1ncc([N+](=O)[O-])n1CCS(=O)(=O)N1CCN(C)CC1` [Compound 43] was tested. Which IC50 did it give?
Answer: The IC50 was 13.3 ± 2.5 mM.

Question: With `Cc1ncc([N+](=O)[O-])n1CCS(=O)(=O)NCCCN1CCOCC1` [Compound 44] as the compound, how does the IC50 read?
Answer: Its IC50 is > 16 mM.

Question: With `Cc1ncc([N+](=O)[O-])n1CCS(=O)(=O)NCCN1CCCCC1` [Compound 45] as the compound, how does the IC50 read?
Answer: The IC50 was 4.8 ± 0.3 mM.

Same assay, conditions: IC50(oxic)/IC50(anoxic)

Question: For `Cc1ncc([N+](=O)[O-])n1CCS(=O)(=O)NCCN1CCOCC1` [Compound 42], which HCR is on record?
Answer: The HCR was 1.3.

Question: For `Cc1ncc([N+](=O)[O-])n1CCS(=O)(=O)N1CCN(C)CC1` [Compound 43], which HCR is on record?
Answer: Its HCR is 1.6.

Question: Which HCR does the source give for `Cc1ncc([N+](=O)[O-])n1CCS(=O)(=O)NCCCN1CCOCC1` [Compound 44] here?
Answer: Its HCR is >2.0.

Question: How did the HCR turn out when `Cc1ncc([N+](=O)[O-])n1CCS(=O)(=O)NCCN1CCCCC1` [Compound 45] was run?
Answer: Its HCR is 2.8.

System: HCT116/54C cells
Assay: In vitro radiosensitisation under anoxia, clonogenic survival
Assay type: cell-based, human
Conditions: compound 1 mM, radiation dose for 1% survival/radiation dose for 1% survival with compound, mean ± SEM
Procedure: Next, we evaluated in vitro radiosensitisation by using a representative subset of nitroimidazole compounds in HCT116/54C cells with a clonogenic survival endpoint. Radiosensitisation was determined by treating cells under anoxia with a range of radiation doses alone and with compounds at equimolar doses (1 mM). Sensitiser enhancement ratios (SER) were calculated as the ratio of radiation dose required for 1% clonogenic survival alone or with compound (Table 3).
Cells were seeded onto 96-well plates at 10^5 cells per well and allowed to attach for 2 h. […] The plates were irradiated (Eldorado 78 ^60Co teletherapy unit, ~2 Gy/min) with 15 Gy under anoxia at room temperature for SR experiments. A metal wedge placed on the top of the metal chamber was used to achieve a graduated radiation dose across the plate, varying from 7 to 29 Gy, calibrated by Fricke dosimetry with ammonium thiocyanate as previously described for SER experiments. The control plate (compound alone, no radiation) was left inside the anaerobic chamber at room temperature during the irradiation period. After treatment, the cells were trypsinized and suspended in usual media + 1% penicillin-streptomycin (ThermoFisher Scientific), and 10-fold serial dilutions were plated for clonogenic survival. After 10 days, plates were stained with methylene blue (2 g/L in EtOH/H2O, 1:1 v/v) and colonies with more than 50 cells were counted. The surviving fraction (SF) was determined as: SF = PE(irradiated)/PE(control) where the plating efficiency (PE) = (No. of colonies)/(No. of cells plated). SF was plotted against radiation dose. Survival ratios (SR) were calculated: SR = (cell survival with radiation)/(cell survival with drug + radiation). Sensitizer enhancement ratios (SER) were calculated: SER = (radiation dose for 1% survival without compound)/(radiation dose for 1% survival with compound).

Question: With `Cc1ncc([N+](=O)[O-])n1CCS(=O)(=O)NCCO` [Compound 41] as the compound, how does the “SER at 1 mM” value read?
Answer: The value was 1.16 ± 0.01.

Question: For `Cc1ncc([N+](=O)[O-])n1CCS(=O)(=O)NCCN1CCOCC1` [Compound 42], which “SER at 1 mM” value is on record?
Answer: Its value is 1.16 ± 0.01.
